Assay [1] has as its system carrageenan-induced joint oedema. Put plainly: Carrageenan-induced knee arthritis, joint oedema (knee joint diameter). The format is in vivo, rat. To be noted: for reduction of carrageenan-induced knee swelling: hydrocortisone experiment, 100 μg i.a. 30 min before carrageenan. The procedure: (§1) The activity of MEN16132, icatibant and cortisones was measured in an experimental model of arthritis induced by intra-articular injection of carrageenan which causes a strong inflammatory effect. […] The weight imbalance on the two weight-bearing paws, evaluated in a non-invasive way with the incapacitance test, measures the pain resulting from the joint inflammation. The diameter of the knee joint was also measured to measure the oedema.

Assay [2] concerns carrageenan-induced joint pain. As to the kind of experiment: Carrageenan-induced knee arthritis, joint pain (incapacitance test). It counts as in vivo, rat. The procedure:
as §1

The test system of assay [3] is cell infiltration in the airways caused by LPS. As to the kind of experiment: LPS-induced airway inflammation, leucocytes in bronchoalveolar washing. It counts as in vivo, guinea pig. The settings on record: for reduction of the number of inflammatory cells in the airways after LPS: aerosol of a 1 mg/ml solution for 15 min.
Assay [4] has as its system human airway muscle cells. As to the kind of experiment: LPS-induced PGE2 release in cultures of human airway muscle cells. It counts as cell-based. The settings on record: LPS 1 μg/ml for 24 hours. How it is done:
Similar findings were obtained with an in vitro model, in cultures of human airway muscle cells stimulated for 24 hours with 1 μg/ml LPS, where an approximately 16-fold increase in the production of PGE2 was observed compared with the control.

Assay [5] relates to symptomatic OA of the knee. To be noted: cited from earlier work.
Setting [6] is: 100 μg/25 μl i.a. 30 min before carrageenan, maximum effect 6 hours.
The mark [7] stands for this setting: 100 μg i.a. 30 min before carrageenan, 6 hours after the irritant.

Here are results for four molecules from patent publication US8476276B2, “Pharmaceutical compositions based on kinin B2 receptor antagonists and corticosteroids, and their use” (Istituto Luso Farmaco d'Italia S.p.A., priority 2008, dated 2013).

`Cc1cc(C)c2cccc(OCc3c(Cl)ccc(S(=O)(=O)NC4(C(=O)N5CCN(C(=O)[C@@H](N)CCC[N+](C)(C)C)CC5)CCOCC4)c3Cl)c2n1` [MEN16132, (4-(S)-amino-5-(4-{4-[2,4-dichloro-3-(2,4-dimethyl-quinolin-8-yloxymethyl)-benzenesulphonylamino]-tetrahydro-pyran-4-carbonyl}-piperazin-1-yl)-5-oxo-pentyl]-trimethyl-ammonium]: the “reduction of carrageenan-induced oedema” value in assay [1] (setting [6]) came out at 45±3%. Besides, the “reduction of carrageenan-induced knee swelling” value in assay [1] is given as 42±3%. The “reduction of joint pain” value in assay [2] (setting [7]) was found to be 38±4%. Besides, the “reduction of the number of inflammatory cells in the airways after LPS” value in assay [3] is 6%. The “reduction of LPS-induced release of PGE2” value in assay [4] (100 nM) amounted to 39%.

Regarding `C[C@@H]1C[C@H]2[C@@H]3CCC4=CC(=O)C=C[C@]4(C)[C@@]3(F)[C@@H](O)C[C@]2(C)[C@@]1(O)C(=O)CO` [dexamethasone, Dexamethasone], the “reduction of carrageenan-induced oedema” value was 57±3% in assay [1] (setting [6]) and “inactive” in assay [1] (dexamethasone 10 μg i.a.). Besides, the results for the “reduction of joint pain” value in assay [2] (10 μg i.a.) and in assay [2] (setting [7]) were 14±4% and 44±3%, respectively. The “reduction of cell infiltration in the airways after LPS” value in assay [3] (aerosol of a 0.03 mg/ml solution for 15 min) is 8%. In assay [4] (1 μM), the “reduction of LPS-induced release of PGE2” value came out at 45%.

On to `C[C@]12CCC(=O)C=C1CC[C@@H]1[C@@H]2[C@@H](O)C[C@@]2(C)[C@H]1CC[C@]2(O)C(=O)CO` [hydrocortisone, Hydrocortisone], for which, in assay [1], the “reduction of carrageenan-induced knee swelling” value was −4±3%.

`NC(N)=NCCC[C@@H](N)C(=O)N[C@@H](CCCN=C(N)N)C(=O)N1CCC[C@H]1C(=O)N1C[C@H](O)C[C@H]1C(=O)NCC(=O)N[C@@H](Cc1cccs1)C(=O)N[C@@H](CO)C(=O)N1Cc2ccccc2C[C@@H]1C(=O)N1[C@H](C(=O)N[C@@H](CCCN=C(N)N)C(=O)O)C[C@@H]2CCCC[C@@H]21` [icatibant, H-D-Arg-Arg-Pro-Hyp-Gly-Thi-Ser-D-Tic-Oic-Arg-OH]: the “reduction of carrageenan-induced oedema” value in assay [1] (setting [6]) is 48±5%. The “reduction of the number of inflammatory cells in the airways after LPS” value in assay [3] was 5%. Further, the “reduction of LPS-induced release of PGE2” value in assay [4] (100 nM) is on record as 30%. Further, the “duration of analgesic response after the treatment” value in assay [5] (intra-articular infiltration, 3×500 μg injections one week apart) was “up to 3 months”. The “intensity of pain in the knee” value in assay [5] (phase II, single intra-articular administration 90 μg/1 ml, versus placebo) is recorded as “reduced the intensity of pain in the knee to a greater extent than the placebo”.
